Here are results for 61 molecules from patent US8716324B2, “Tricyclic indeno-pyrrole derivatives as serotonin receptor modulators” (Athersys, Inc., priority 2004, dated 2014).

This test has as its target human 5HT2c receptor (VSV Isoform) (Homo sapiens, UniProt P28335, I156V/I160V/N158S). The test can be described thus: cell-based. The following applies: 5-HT2c EC50 (hVSV, μM).

In general, EC50 refers to the midpoint of the concentration-response curve. A lower EC50 goes with an effect from little substance.

Sequence of human 5HT2c receptor (VSV Isoform) (P28335 33-458 I156V/N158S/I160V limits assumed): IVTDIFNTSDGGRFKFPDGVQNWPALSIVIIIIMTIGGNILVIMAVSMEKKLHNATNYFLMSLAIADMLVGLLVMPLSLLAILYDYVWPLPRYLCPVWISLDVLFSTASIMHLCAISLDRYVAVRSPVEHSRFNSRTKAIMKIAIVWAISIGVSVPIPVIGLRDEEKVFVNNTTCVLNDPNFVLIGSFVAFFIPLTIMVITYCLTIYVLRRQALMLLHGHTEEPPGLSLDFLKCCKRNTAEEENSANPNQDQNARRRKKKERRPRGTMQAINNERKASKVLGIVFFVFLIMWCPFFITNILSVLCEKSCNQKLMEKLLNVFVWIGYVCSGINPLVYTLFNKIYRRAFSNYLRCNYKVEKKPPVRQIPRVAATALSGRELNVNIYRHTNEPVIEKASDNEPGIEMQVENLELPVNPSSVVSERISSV

Molecule `COc1ccc2c(c1)C1CNCC1C2C` (single isomer, unassigned) [1, Enantiomer 2] displayed an EC50 of less than 1 µM.
In the case of `CC1c2ccc(O)cc2C2CNCC12` (single isomer, unassigned) [2, Enantiomer 1], the concentration giving a half-maximal response (EC50) is less than 1 µM.
Molecule `CC1c2ccc(O)cc2C2CNCC12` (single isomer, unassigned) [2, Enantiomer 2] yielded an EC50 of less than 0.1 µM.
For the molecule `COc1cc2c(cc1Cl)C(C)C1CNCC21` (single isomer, unassigned) [3, Enantiomer 2], the EC50 is less than 0.1 µM.
`CC1c2cc(Cl)c(O)cc2C2CNCC12` (single isomer, unassigned) [4, Enantiomer 2]: the EC50 is less than 0.1 µM.
As for `CC1c2cc(Cl)ccc2C2CNCC12` (single isomer, unassigned) [5, Enantiomer 1], the figure is less than 1 µM; as for `CC1c2cc(Cl)c(OCc3ccc(F)cc3)cc2C2CNCC12` (single isomer, unassigned) [6, Enantiomer 2], less than 1 µM.
As for `Cc1ccc2c(c1)C(C)C1CNCC21` (single isomer, unassigned) [15, Enantiomer 1], the EC50 was less than 0.1 µM.
As for `Cc1ccc2c(c1)C(C)C1CNCC21` (single isomer, unassigned) [15, Enantiomer 2], the figure is less than 1 µM; as for `Cc1cc2c(cc1Cl)C(C)C1CNCC21` (single isomer, unassigned) [21, Enantiomer 1], less than 1 µM; as for `Cc1cc2c(cc1Cl)C(C)C1CNCC21` (single isomer, unassigned) [21, Enantiomer 2], less than 0.1 µM.
Consider `Cc1cc2c(cc1Cl)C1CNCC1C2C` (single isomer, unassigned) [23, Enantiomer 1], for which the half-maximal effective concentration (EC50) was less than 1 µM.
As for `Cc1cc2c(cc1Cl)C1CNCC1C2C` (single isomer, unassigned) [23, Enantiomer 2], the figure is less than 0.1 µM; as for `COc1ccc2c(c1Cl)C1CNCC1C2C` (single isomer, unassigned) [25, Enantiomer 2], less than 1 µM.
With `CC1c2cc(Cl)c(Cl)cc2C2CNCC12` (single isomer, unassigned) [26, Enantiomer 1] the figure was less than 1 µM; with `CC1c2cc(Cl)c(Cl)cc2C2CNCC12` (single isomer, unassigned) [26, Enantiomer 2], less than 0.1 µM.
As for `CC1c2c(ccc(Cl)c2Cl)C2CNCC12` (single isomer, unassigned) [27, Enantiomer 1], the figure is less than 1 µM; as for `CC1c2c(ccc(Cl)c2Cl)C2CNCC12` (single isomer, unassigned) [27, Enantiomer 2], less than 0.1 µM; as for `CCOc1cc2c(cc1Cl)C(C)C1CNCC21` (single isomer, unassigned) [29, Enantiomer 2], less than 0.1 µM.
Consider `COc1cc2c(cc1Br)C(C)C1CNCC21` (single isomer, unassigned) [30, Enantiomer 2], for which the EC50 is less than 0.01 µM.
Turning to `CC1c2cc(Br)c(O)cc2C2CNCC12` (single isomer, unassigned) [31, Enantiomer 2], the EC50 is less than 0.1 µM.
On to `COc1cc2c(cc1-c1cccs1)C(C)C1CNCC21` (single isomer, unassigned) [32, Enantiomer 2], for which the EC50 was greater than 10 µM.
`COc1cc2c(cc1C#N)C(C)C1CNCC21` (single isomer, unassigned) [33, Enantiomer 2]: the EC50 is less than 1 µM.
Take `COc1ccc2c(c1OC)C1CNCC1C2C` (single isomer, unassigned) [34, Enantiomer 1]: the EC50 is less than 1 µM.
Turning to `COc1c(Cl)cc2c(c1OC)C1CNCC1C2C` (single isomer, unassigned) [35, Enantiomer 1], the EC50 was less than 0.1 µM.
`COc1cc2c(cc1OC)C1CNCC1C2C` (single isomer, unassigned) [36, Enantiomer 1]: the EC50 is greater than 10 µM.
As for `COc1cc2c(cc1OC)C1CNCC1C2C` (single isomer, unassigned) [36, Enantiomer 2], the figure is less than 1 µM.
Molecule `COc1cc2c(cc1Cl)CC1CNCC21` (single isomer, unassigned) [37, Enantiomer 1] gave an EC50 of less than 0.1 µM.
Take `COc1c(Cl)cc2c(c1Cl)C1CNCC1C2C` (single isomer, unassigned) [38, Enantiomer 1]: the EC50 was less than 1 µM.
The molecule `COc1c(Cl)cc2c(c1Cl)C1CNCC1C2C` (single isomer, unassigned) [38, Enantiomer 2] yielded an EC50 of less than 0.1 µM.
`CC1c2ccc(Cl)c(Cl)c2C2CNCC12` (single isomer, unassigned) [41, Enantiomer 1] registered an EC50 of less than 1 µM.
As for `CC1c2ccc(Cl)c(Cl)c2C2CNCC12` (single isomer, unassigned) [41, Enantiomer 2], the figure is less than 10 µM.
For the molecule `CC1c2c(ccc(Cl)c2F)C2CNCC12` (single isomer, unassigned) [42, Enantiomer 1], the EC50 was less than 10 µM.
For `CC1c2c(ccc(Cl)c2F)C2CNCC12` (single isomer, unassigned) [42, Enantiomer 2], the EC50 is less than 0.1 µM.
For the molecule `CC1c2ccc(OCc3ccccc3)cc2C2CNCC12` (single isomer, unassigned) [43, Enantiomer 2], the EC50 was less than 10 µM.
Molecule `CC1c2ccc(OCc3ccccc3F)cc2C2CNCC12` (single isomer, unassigned) [44, Enantiomer 2] gave an EC50 of less than 10 µM.
In turn, `CC1c2ccc(OCc3cccc(F)c3)cc2C2CNCC12` (single isomer, unassigned) [45, Enantiomer 2] had an EC50 of less than 10 µM.
Regarding `CC1c2ccc(OCc3ccc(F)cc3)cc2C2CNCC12` (single isomer, unassigned) [46, Enantiomer 2], the EC50 is less than 10 µM.
Take `CC1c2ccc(-c3c(F)cccc3F)cc2C2CNCC12` (single isomer, unassigned) [47, Enantiomer 2]: the EC50 was greater than 10 µM.
The molecule `COc1ccc2c(c1)C1CNCC1C2C` (stereo not shown) [Example 1, 5-Methoxy-8-methyl-1,2,3,3a,8,8a-hexahydroindeno[1,2-c]pyrrole] returned an EC50 greater than 10 µM.
`CC1c2ccc(O)cc2C2CNCC12` (stereo not shown) [Example 2, 5-Hydroxy-8-methyl-1,2,3,3a,8,8a-hexahydroindeno[1,2-c]pyrrole] registered an EC50 of less than 0.1 µM.
Regarding `COc1cc2c(cc1Cl)C(C)C1CNCC21` (stereo not shown) [Example 3, 5-Methoxy-6-chloro-8-methyl-1,2,3,3a,8,8a-hexahydroindeno[1,2-c]pyrrole], the EC50 was less than 0.1 µM.
On to `CC1c2cc(Cl)c(O)cc2C2CNCC12` (stereo not shown) [Example 4, 5-Hydroxy-6-chloro-8-methyl-1,2,3,3a,8,8a-hexahydroindeno[1,2-c]pyrrole], for which the EC50 was less than 1 µM.
With `CC1c2cc(Cl)ccc2C2CNCC12` (stereo not shown) [Example 5, 6-Chloro-8-methyl-1,2,3,3a,8,8a-hexahydroindeno[1,2-c]pyrrole], the EC50 was less than 0.1 µM.
Molecule `CC1c2cc(Cl)c(OCc3ccc(F)cc3)cc2C2CNCC12` (stereo not shown) [Example 6, 5-(4-Fluorobenzyloxy)-6-chloro-8-methyl-1,2,3,3a,8,8a-hexahydroindeno[1,2-c]pyrrole] yielded an EC50 of less than 1 µM.
With `CC1c2cc(Cl)c(OCc3ccccc3)cc2C2CNCC12` (stereo not shown) [Example 7, 5-Benzyloxy-6-chloro-8-methyl-1,2,3,3a,8,8a-hexahydroindeno[1,2-c]pyrrole], the EC50 is less than 10 µM.
Molecule `CC1c2cc(Cl)c(OCc3ccccc3F)cc2C2CNCC12` (stereo not shown) [Example 8, 5-(2-Fluorobenzyloxy)-6-chloro-8-methyl-1,2,3,3a,8,8a-hexahydroindeno[1,2-c]pyrrole] had an EC50 of less than 10 µM.
Consider `CC1c2cc(Cl)c(OCc3cccc(F)c3)cc2C2CNCC12` (stereo not shown) [Example 9, 5-(3-Fluorobenzyloxy)-6-chloro-8-methyl-1,2,3,3a,8,8a-hexahydroindeno[1,2-c]pyrrole], for which the EC50 is less than 10 µM.
As to `c1ccc2c(c1)CC1CNCC21` (stereo not shown) [Example 10, 1,2,3,3a,8,8a-Hexahydroindeno[1,2-c]pyrrole], the 50% effective concentration (EC50) is less than 10 µM.
Molecule `Clc1ccc2c(c1)CC1CNCC21` (stereo not shown) [Example 11, 6-Chloro-1,2,3,3a,8,8a-hexahydroindeno[1,2-c]pyrrole] returned an EC50 of less than 0.1 µM.
`Fc1cccc(F)c1-c1ccc2c(c1)CC1CNCC21` (stereo not shown) [Example 12, 6-(2,6-Difluorophenyl)-1,2,3,3a,8,8a-hexahydroindeno[1,2-c]pyrrole] registered an EC50 greater than 10 µM.
For the molecule `Cc1ccc2c(c1)C1CNCC1C2C` (stereo not shown) [Example 13, 5-Methyl-8-methyl-1,2,3,3a,8,8a-hexahydroindeno[1,2-c]pyrrole], the EC50 was less than 1 µM.
With `Cc1cccc2c1C1CNCC1C2C` (stereo not shown) [Example 14, 4-Methyl-8-methyl-1,2,3,3a,8,8a-hexahydroindeno[1,2-c]pyrrole], the EC50 was less than 1 µM.
On to `Cc1ccc2c(c1)C(C)C1CNCC21` (stereo not shown) [Example 15, 6-Methyl-8-methyl-1,2,3,3a,8,8a-hexahydroindeno[1,2-c]pyrrole], for which the EC50 was less than 1 µM.
As for `Cc1cccc2c1C(C)C1CNCC21` (stereo not shown) [Example 16, 7-Methyl-8-methyl-1,2,3,3a,8,8a-hexahydroindeno[1,2-c]pyrrole], the half-maximal effective concentration (EC50) was less than 1 µM.
`CC1c2cccc(F)c2C2CNCC12` (stereo not shown) [Example 17, 4-Fluoro-8-methyl-1,2,3,3a,8,8a-hexahydroindeno[1,2-c]pyrrole] registered an EC50 of less than 10 µM.
`CC1c2ccc(F)cc2C2CNCC12` (stereo not shown) [Example 18, 5-Fluoro-8-methyl-1,2,3,3a,8,8a-hexahydroindeno[1,2-c]pyrrole] gave an EC50 of less than 1 µM.
In turn, `CC1c2cc(F)ccc2C2CNCC12` (stereo not shown) [Example 19, 6-Fluoro-8-methyl-1,2,3,3a,8,8a-hexahydroindeno[1,2-c]pyrrole] returned an EC50 of less than 1 µM.
The molecule `CC1c2ccc(Cl)cc2C2CNCC12` (stereo not shown) [Example 20, 5-Chloro-8-methyl-1,2,3,3a,8,8a-hexahydroindeno[1,2-c]pyrrole] displayed an EC50 of less than 10 µM.
As for `Cc1cc2c(cc1Cl)C(C)C1CNCC21` (stereo not shown) [Example 21, 5-Methyl-6-chloro-8-methyl-1,2,3,3a,8,8a-hexahydroindeno[1,2-c]pyrrole], the EC50 is less than 0.1 µM.
As for `Cc1cc2c(cc1Br)C(C)C1CNCC21` (stereo not shown) [Example 22, 5-Methyl-6-bromo-8-methyl-1,2,3,3a,8,8a-hexahydroindeno[1,2-c]pyrrole], the figure is less than 1 µM.
